Test results published in ChEMBL document CHEMBL5715936, “Selective Itk inhibitors block T-cell activation and murine lung inflammation” (Biochemistry, 2004).
The source made the active and inactive calls. The rule behind the calls is not given here.

How the values were obtained:
T-cell line = assay: Anti-proliferative activity against irradiated APC induced human T cell incubated for 3 days; format: functional, cell-based; conditions: light or radiation study, 72 h
[1] = biological target: T1, Tyrosine-protein kinase TXK (Homo sapiens, UniProt P42681); assay: Inhibition of Txk (unknown origin) using GST-SLP-76 as peptide substrate incubated for 10 mins in presence of [gamma-33P]ATP by scintillation counter assay
T1 sequence (P42681 whole entry): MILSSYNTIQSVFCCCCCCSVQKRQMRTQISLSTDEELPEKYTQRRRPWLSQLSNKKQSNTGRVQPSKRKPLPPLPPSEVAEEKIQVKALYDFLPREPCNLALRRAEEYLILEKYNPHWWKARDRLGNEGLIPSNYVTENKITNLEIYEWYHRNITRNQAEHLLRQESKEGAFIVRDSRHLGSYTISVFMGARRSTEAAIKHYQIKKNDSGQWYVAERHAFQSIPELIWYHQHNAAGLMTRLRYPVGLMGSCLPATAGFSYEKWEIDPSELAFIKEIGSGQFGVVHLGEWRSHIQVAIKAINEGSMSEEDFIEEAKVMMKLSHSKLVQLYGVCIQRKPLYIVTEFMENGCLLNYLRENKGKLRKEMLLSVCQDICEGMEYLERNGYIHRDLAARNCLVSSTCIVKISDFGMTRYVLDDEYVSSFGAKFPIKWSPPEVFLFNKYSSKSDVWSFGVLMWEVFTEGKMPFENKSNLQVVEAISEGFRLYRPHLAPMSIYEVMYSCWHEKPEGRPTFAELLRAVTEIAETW

[2] = biological target: RAC-alpha serine/threonine-protein kinase (Homo sapiens, UniProt P31749); assay: Inhibition of Akt1 (unknown origin) using GST-SLP-76 as peptide substrate incubated for 10 mins in presence of [gamma-33P]ATP by scintillation counter assay
Insulin receptor = Insulin receptor (Homo sapiens, UniProt P06213); assay: Inhibition of IR (unknown origin) using GST-SLP-76 as peptide substrate incubated for 10 mins in presence of [gamma-33P]ATP by scintillation counter assay
[3] = biological target: Glycogen synthase kinase-3 beta (Homo sapiens, UniProt P49841); assay: Inhibition of GSK-3beta (unknown origin) using GST-SLP-76 as peptide substrate incubated for 10 mins in presence of [gamma-33P]ATP by scintillation counter assay
[4] = biological target: T2, Tyrosine-protein kinase ZAP-70 (Homo sapiens, UniProt P43403); assay: Inhibition of ZAP-70 (unknown origin) using GST-SLP-76 as peptide substrate incubated for 10 mins in presence of [gamma-33P]ATP by scintillation counter assay
T2 sequence (P43403 whole entry): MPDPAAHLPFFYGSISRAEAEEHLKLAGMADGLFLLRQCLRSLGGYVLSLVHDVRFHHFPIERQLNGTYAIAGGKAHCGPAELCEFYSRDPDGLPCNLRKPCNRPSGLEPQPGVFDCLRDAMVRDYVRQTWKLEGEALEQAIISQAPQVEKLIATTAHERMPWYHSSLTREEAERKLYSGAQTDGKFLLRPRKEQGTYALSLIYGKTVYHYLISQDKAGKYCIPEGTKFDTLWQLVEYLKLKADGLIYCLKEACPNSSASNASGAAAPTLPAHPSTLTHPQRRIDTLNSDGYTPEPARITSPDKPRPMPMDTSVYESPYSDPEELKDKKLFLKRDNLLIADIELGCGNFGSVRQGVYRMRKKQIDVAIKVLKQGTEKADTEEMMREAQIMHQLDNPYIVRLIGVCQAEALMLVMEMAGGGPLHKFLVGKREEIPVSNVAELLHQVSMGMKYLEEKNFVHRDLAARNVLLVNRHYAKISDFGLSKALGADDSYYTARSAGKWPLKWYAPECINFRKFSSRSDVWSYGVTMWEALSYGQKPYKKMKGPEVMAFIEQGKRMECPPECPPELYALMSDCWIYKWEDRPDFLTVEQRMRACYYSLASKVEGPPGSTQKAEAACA

[5] = biological target: Tyrosine-protein kinase Lck (Homo sapiens, UniProt P06239); assay: Inhibition of Lck (unknown origin) using GST-SLP-76 as peptide substrate incubated for 10 mins in presence of [gamma-33P]ATP by scintillation counter assay
[6] = biological target: T3, Tyrosine-protein kinase ITK/TSK (Homo sapiens) (UniProt Q08881); assay: Inhibition of Itk in human Jurkat T cells assessed as inhibition of PLCgamma1 phosphorylation incubated for 20 mins in presence of CD3 antibody G19-4 by Western blotting analysis; format: cell-based; conditions: dose 0.1-10 µM
T3 sequence (whole entry): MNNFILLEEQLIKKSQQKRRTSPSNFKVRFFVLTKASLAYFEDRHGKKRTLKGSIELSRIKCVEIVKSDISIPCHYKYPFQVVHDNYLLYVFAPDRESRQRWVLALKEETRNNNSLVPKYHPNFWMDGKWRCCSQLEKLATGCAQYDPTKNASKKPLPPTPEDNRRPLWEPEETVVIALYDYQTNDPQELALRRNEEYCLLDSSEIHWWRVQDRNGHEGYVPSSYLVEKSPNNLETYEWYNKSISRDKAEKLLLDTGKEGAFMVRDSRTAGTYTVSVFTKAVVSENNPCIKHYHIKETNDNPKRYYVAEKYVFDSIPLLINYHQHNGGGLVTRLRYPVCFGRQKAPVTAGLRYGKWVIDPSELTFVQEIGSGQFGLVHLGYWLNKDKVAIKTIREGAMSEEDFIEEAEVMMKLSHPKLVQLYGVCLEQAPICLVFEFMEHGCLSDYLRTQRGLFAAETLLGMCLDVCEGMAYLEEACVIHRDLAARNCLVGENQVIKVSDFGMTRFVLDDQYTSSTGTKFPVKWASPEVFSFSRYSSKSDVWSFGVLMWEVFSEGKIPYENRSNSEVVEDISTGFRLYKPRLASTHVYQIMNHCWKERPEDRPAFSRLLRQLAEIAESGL

[7] = biological target: cAMP-dependent protein kinase (PKA) (Homo sapiens, UniProt P22694+P17612+P22612); assay: Inhibition of PKA (unknown origin) using GST-SLP-76 as peptide substrate incubated for 10 mins in presence of [gamma-33P]ATP by scintillation counter assay; format: protein assay
[8] = biological target: Mitogen-activated protein kinase 3 (Homo sapiens, UniProt P27361); assay: Inhibition of ERK-1 (unknown origin) using GST-SLP-76 as peptide substrate incubated for 10 mins in presence of [gamma-33P]ATP by scintillation counter assay
[9] = biological target: T3, Tyrosine-protein kinase ITK/TSK (Homo sapiens); assay: Inhibition of Itk in EGF-stimulated human A549 cells assessed as reduction in PLCgamma1 phosphorylation at <=10 uM incubated for 20 mins by Western blotting analysis; format: cell-based
[10] = Inhibition of CaMKII (unknown origin) using GST-SLP-76 as peptide substrate incubated for 10 mins in presence of [gamma-33P]ATP by scintillation counter assay; set-up: species or system Homo sapiens
[11] = biological target: Inhibitor of nuclear factor kappa-B kinase subunit beta (Homo sapiens, UniProt O14920); assay: Inhibition of IKKbeta (unknown origin) using GST-SLP-76 as peptide substrate incubated for 10 mins in presence of [gamma-33P]ATP by scintillation counter assay
Chain of Inhibitor of nuclear factor kappa-B kinase subunit beta (O14920 whole entry): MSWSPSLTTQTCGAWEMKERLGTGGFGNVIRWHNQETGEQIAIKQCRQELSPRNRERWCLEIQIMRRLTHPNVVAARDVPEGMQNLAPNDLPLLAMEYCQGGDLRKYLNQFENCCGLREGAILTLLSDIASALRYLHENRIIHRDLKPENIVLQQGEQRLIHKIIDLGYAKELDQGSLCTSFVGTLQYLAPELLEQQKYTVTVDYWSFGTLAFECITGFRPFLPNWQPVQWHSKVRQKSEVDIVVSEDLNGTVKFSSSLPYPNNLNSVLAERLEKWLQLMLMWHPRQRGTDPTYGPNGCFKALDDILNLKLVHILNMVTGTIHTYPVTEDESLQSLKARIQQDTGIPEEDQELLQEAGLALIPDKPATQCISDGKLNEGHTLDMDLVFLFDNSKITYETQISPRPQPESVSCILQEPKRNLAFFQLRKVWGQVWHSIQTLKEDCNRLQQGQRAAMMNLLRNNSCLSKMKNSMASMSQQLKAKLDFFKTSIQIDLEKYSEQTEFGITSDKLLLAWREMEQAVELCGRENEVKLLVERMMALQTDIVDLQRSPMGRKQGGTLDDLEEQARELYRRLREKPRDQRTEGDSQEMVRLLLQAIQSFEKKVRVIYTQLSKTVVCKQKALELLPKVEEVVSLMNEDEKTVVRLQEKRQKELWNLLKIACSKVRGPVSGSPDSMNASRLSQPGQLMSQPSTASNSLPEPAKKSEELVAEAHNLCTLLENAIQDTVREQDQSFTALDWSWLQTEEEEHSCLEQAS

Chain of Glycogen synthase kinase-3 beta (P49841 whole entry): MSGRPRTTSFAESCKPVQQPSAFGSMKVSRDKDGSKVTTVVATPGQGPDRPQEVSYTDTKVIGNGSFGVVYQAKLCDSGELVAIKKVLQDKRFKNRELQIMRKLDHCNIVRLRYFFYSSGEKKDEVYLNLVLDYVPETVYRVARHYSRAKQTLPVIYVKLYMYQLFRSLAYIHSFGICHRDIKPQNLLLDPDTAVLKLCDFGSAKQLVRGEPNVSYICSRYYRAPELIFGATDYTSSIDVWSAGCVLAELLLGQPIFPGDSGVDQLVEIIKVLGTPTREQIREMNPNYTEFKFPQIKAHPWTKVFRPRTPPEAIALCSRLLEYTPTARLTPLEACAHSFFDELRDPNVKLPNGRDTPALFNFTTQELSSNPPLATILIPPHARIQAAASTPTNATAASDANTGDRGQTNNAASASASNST
Chain of Insulin receptor (P06213 28-758 limits assumed): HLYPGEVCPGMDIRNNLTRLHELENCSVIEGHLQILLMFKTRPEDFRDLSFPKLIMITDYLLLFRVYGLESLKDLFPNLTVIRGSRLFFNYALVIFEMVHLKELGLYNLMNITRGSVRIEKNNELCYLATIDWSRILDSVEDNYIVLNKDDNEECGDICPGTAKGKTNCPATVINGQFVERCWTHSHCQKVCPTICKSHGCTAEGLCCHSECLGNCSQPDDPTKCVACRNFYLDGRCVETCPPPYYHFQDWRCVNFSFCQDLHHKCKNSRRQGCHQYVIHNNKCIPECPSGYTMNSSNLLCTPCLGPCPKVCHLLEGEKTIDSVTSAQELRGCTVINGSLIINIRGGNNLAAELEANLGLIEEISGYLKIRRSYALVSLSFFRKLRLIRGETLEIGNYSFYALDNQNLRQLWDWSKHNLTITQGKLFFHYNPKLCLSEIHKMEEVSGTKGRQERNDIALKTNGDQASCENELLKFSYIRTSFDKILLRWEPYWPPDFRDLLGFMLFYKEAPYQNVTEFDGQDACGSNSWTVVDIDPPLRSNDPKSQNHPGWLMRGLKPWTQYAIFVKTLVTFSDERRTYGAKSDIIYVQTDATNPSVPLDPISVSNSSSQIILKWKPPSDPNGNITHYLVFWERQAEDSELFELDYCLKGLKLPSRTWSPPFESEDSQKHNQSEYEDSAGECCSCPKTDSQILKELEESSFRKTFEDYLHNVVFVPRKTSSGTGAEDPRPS
Chain of Insulin receptor (P06213 763-1382 limits assumed): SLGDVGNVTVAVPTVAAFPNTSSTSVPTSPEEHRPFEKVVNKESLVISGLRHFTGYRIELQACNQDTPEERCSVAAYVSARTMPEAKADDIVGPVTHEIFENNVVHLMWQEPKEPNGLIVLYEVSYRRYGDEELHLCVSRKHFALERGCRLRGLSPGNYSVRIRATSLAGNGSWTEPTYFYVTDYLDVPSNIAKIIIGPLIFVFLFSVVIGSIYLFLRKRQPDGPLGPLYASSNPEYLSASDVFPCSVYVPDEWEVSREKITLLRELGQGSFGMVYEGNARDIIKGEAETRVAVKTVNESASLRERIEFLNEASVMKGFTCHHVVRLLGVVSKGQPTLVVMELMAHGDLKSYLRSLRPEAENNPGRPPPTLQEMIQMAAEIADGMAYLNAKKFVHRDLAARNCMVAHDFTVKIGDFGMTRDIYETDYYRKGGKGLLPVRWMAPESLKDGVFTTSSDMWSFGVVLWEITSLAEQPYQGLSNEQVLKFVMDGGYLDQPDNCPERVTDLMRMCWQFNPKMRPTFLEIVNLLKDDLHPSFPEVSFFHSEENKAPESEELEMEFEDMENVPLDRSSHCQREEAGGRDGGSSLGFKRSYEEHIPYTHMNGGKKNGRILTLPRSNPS
Chain of Tyrosine-protein kinase Lck (P06239 whole entry): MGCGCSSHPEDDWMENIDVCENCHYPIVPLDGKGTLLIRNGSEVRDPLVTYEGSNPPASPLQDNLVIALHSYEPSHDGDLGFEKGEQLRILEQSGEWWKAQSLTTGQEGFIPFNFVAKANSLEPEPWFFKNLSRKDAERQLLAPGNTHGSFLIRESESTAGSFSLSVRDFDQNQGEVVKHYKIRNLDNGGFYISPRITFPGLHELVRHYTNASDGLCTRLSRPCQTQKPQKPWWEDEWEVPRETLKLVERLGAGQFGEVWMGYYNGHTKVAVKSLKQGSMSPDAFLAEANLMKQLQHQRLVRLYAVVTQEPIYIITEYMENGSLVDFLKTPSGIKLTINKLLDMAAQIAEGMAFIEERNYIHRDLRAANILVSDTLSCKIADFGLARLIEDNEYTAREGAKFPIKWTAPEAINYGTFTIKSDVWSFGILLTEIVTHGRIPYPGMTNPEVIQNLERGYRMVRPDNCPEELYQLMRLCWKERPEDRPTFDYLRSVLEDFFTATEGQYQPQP
Chain of Mitogen-activated protein kinase 3 (P27361 whole entry): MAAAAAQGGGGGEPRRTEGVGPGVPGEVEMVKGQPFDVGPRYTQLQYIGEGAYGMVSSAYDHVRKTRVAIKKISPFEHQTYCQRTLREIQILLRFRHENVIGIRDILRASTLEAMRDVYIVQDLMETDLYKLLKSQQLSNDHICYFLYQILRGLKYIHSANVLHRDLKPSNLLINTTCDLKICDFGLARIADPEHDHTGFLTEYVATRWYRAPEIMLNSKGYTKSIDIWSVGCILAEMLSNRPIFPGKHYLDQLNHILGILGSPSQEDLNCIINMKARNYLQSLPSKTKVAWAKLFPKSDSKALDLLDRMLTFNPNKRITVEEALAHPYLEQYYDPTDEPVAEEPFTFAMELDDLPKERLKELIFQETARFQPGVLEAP
Chain of RAC-alpha serine/threonine-protein kinase (P31749 whole entry): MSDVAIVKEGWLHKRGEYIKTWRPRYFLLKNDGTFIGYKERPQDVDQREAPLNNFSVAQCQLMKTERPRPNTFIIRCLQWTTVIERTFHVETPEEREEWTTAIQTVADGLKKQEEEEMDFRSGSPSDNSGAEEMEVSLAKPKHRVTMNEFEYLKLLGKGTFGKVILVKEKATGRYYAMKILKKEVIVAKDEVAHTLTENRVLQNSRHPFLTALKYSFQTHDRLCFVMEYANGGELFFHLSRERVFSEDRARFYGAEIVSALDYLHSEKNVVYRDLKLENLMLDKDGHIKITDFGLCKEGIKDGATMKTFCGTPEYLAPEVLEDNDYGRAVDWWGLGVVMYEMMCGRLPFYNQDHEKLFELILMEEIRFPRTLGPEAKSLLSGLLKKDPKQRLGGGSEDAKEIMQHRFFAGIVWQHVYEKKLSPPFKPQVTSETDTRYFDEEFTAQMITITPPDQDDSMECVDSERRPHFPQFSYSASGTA

SMILES	IC50 (T-cell line) [µM]	IC50 [1] [µM]	IC50 [2] [µM]	IC50 (Insulin receptor) [µM]	IC50 [3] [µM]	IC50 [4] [µM]	IC50 [5] [µM]	inhibition [6]	IC50 [7] [µM]	IC50 [8] [µM]	inhibition [9]	IC50 [10] [µM]	IC50 [11] [µM]
CC(=O)N1CCN(C(=O)c2cc(CSc3cnc(NC(=O)c4ccc(CNC(C)C(C)(C)C)cc4)s3)cc(C)c2C)CC1 (stereo unspecified)	0.35	> 50	> 50	4.4	47.4	> 50	27	Dose-Dependent Effect	> 50	> 50	Active	> 50	> 50
COc1cc(C)c(Sc2cnc(NC(=O)c3ccc(CNC(C)C(C)(C)C)cc3)s2)cc1C(=O)N1CCN(C(C)=O)CC1 (stereo unspecified)	0.43	11	> 50	1.1	36	> 50	2.4	Dose-Dependent Effect	> 50	> 50	Active	33.5	> 50
